Measurements: PMC8471001 (Biosensors, 2021)
“Also recorded” adds a separate entry of the source.

What was measured:
[1] = target: tyrosinase (EC 1.14.18.1, from mushroom); assay: Amperometric biosensor: tyrosinase immobilized on carbon black paste electrode, inhibition of catechol response; assay type: biochemical; conditions: for IC50: 0.1 M phosphate buffer pH 6.8, -0.15 V vs. Ag/AgCl; for IC50 / type of inhibition: immobilized tyrosinase; for type of inhibition: from shift of inhibition curve, 20 vs 200 µM catechol; for inhibition range of catechol response: 20 µM catechol
Description: The immobilization of tyrosinase onto the surface of the carbon black paste electrode (CBPE) was achieved by cross-linking with glutaraldehyde and bovine serum albumin (BSA) as reported elsewhere for several enzyme biosensors. In brief, the enzyme solution was first prepared by mixing 15 µL of Tyr (35 U/mL), 7.5 µL of BSA (1% w/v), and 7.5 µL of glutaraldehyde (0.25% w/v) on a glass slide. Then, 7.5 µL of the mixture was spread on the surface of a CBPE, and lastly, it was dried at room temperature for 1 h. Before electrochemical measurements, the enzyme electrode was placed under stirring for 10 min in PBS buffer to remove the enzyme not firmly immobilized. The electrodes were maintained at 4 °C in phosphate buffer, pH 6.8 until use.
The tyrosinase was immobilized on the surface of the carbon black paste electrode. The electrochemical measurements of o-quinone produced by the tyrosinase-based biosensor, in presence of catechol as substrate, were monitored by an amperometric measurement.
The enzyme activity assays were performed in an electrochemical cell containing 5 mL of 0.1 M phosphate buffer, pH 6.8 at 25 °C. The applied potential was fixed at −0.15 V.
To perform each amperometric measurement, the CBPE-Tyr electrode was dipped into an electrochemical cell containing 5 mL of 0.1 M phosphate buffer solution (pH 6.8) under constant magnetic stirring. The applied potential was fixed to −0.15 V versus Ag/AgCl. Once the baseline was established (10 min approximately), a defined amount of catechol solution was added to the measuring cell. […] Then, the inhibitor solutions were added consecutively each time a plateau was reached (approximately every 30 s). The addition of tyrosinase inhibitors causes an inhibition of the enzyme, consequently decreasing the amount of liberated enzymatic reaction products.
(§1) To evaluate the degree of inhibition (I%) of the tyrosinase activity, signal responses in the absence (I0) and the presence of an inhibitor (I1) were measured with either an electrochemical or colorimetric method. The degree of inhibition (I%) is expressed as follows: (1) I(%)=I0−I1/I0×100
When using the amperometric biosensor, the CBPE/Tyr modified electrode was immersed into a phosphate buffer solution at pH 6.8, under stirring and a fixed potential of −0.15 V. After stabilizing the baseline current, a fixed amount of catechol (substrate) was added to reach a steady-state current (I0) before adding the inhibitor. […] The concentration of inhibitors was increased to inhibit tyrosinase activity, and the current decrease (I1) was recorded.

mushroom tyrosinase = assay: Spectrophotometric progress-curve assay of free tyrosinase with L-tyrosine (half-time reaction t'1/2); assay type: biochemical; conditions: plot of t'1/2 versus inhibitor concentration at 0.5-3 mM L-tyrosine
Description: Substrate conversion was evaluated by measuring the increase in absorbance at 490 nm. The absorbance was sampled every 1 min, allowing each progression curve to be constructed in 40 min.
as §1

type of inhibition (mushroom tyrosinase)	inhibition range of catechol response ([1]; inhibitor 2.5 µM to 97.5 µM)	SMILES	IC50 ([1]; 20 µM catechol substrate) [µM]	IC50 ([1]; 200 µM catechol substrate) [µM]	type of inhibition [1]	inhibition range of catechol response ([1]; inhibitor 5 µM to 275 µM)	inhibition range of catechol response ([1]; inhibitor 0.01 mM to 1.57 mM)
		O=C(O)c1ccccc1 [benzoic acid]	119	500	competed with catechol	8–69%	
competitive inhibition	13–74%	O=c1cc(CO)occ1O [kojic acid]			competitive inhibition; also recorded: competed with catechol		
		[N-]=[N+]=[N-].[Na+] [sodium azide]	1480	2000	competed with catechol		7–64%
